Source: patent US20260337208A1, “HETEROCYCLIC DERIVATIVES AS JANUS KINASE INHIBITORS” (CHIESI FARMACEUTICI S.P.A., priority 2022, published 2026)

What was measured:
[1] = tested on: pSTAT6 in BEAS-2B human cell line; test: Inhibition of IL-13 induced pSTAT6 in BEAS; format: cell-based; details: for IC50: Homo sapiens, BEAS-2B, 0.5 h, IL-13 trigger, 30 min, parent compound; for Fold difference parent vs predicted acid metabolite: ratio=IC50 predicted acid metabolite/IC50 ester
Protocol: BEAS-2B human cell line was seeded (100.000 cells/well) and incubated for 48 h at 37° C., 5% CO2, 95% humidity. Compounds were added and incubated 30 min followed by IL-13 as trigger. After 30 min incubation, cells were lysed and pSTAT6 determined by Fastscan phospho-stat6 (Tyr641) sandwich ELISA kit (cell signaling). Inhibitors were tested at 11 consecutive 5-fold dilutions starting from 10 μM (10 μM-[…]) in duplicate. Calculation of IC50 data, curves and QC analysis were made using Excel tools and GraphPadPrism software. QC criteria parameters: Z′≥0.35, Hill Slope range 0.5 to 5, S:B>2.

JAK1 = JAK1 (Homo sapiens, UniProt P23458); test: Biochemical potency on JAK1, TR-FRET (LANCE Ultra kinase assay); details: ATP corresponding to Km; cell-free; read-out: JAK1 inhibitory activity (pIC50) (converted)
Protocol: (§1) The objective of this study was to assess the capability of compounds to inhibit all 4 JAK isoforms activity in a cell-free environment. Assay for JAK 1, JAK 2, JAK 3 and TYK2 were performed by Time-resolved fluorescence resonance energy transfer (TR-FRET) technology. It consists in the interaction of two labelled binding partners detected by the energy transfer from an excited donor to an acceptor dye and measurement of light emission by the acceptor dye. LANCE Ultra kinase assay was used. In presence of JAK 1, JAK 2, JAK 3 and TYK2 kinases and ATP (corresponding to Km), the ULight peptide substrate (LANCE Ulight-JAK-1 (Tyr1023) Peptide, Perkin Elmer, TRF0121) is phosphorylated. It is then captured by Eu-anti-phospho-substrate antibody (LANCE Eu-W1024 Anti-phosphotyrosine (PT66), Perkin Elmer, AD0069), which bring the Eu-chelate donor and ULight acceptor dyes into close proximity. Upon excitation at 320 nm, the Eu-chelate transfers its energy to the ULight dye, resulting in a fluorescent light emission at 665 nm.
(§2) Serial dilutions of compounds in pure DMSO are prepared from 10 mM DMSO stock solutions. Compounds were tested in 384-well plate for 11 consecutive 5-fold dilutions starting from 20 μM highest concentration (20 μM-[…]). 200 nL of compound were transferred from mother plate to test plate by using Mosquito (TTP labtech). Assay was performed in 384-well Perkin Elmer test plate in 20 μL assay volume (kinase reaction) and 40 μL total volume (stopping reagent and antibody detection reagents). In 10 μL of substrate solution (peptide+ATP) 30/50/20/10 nM of peptide and 20/0.7/0.2/12 μM of ATP were added for JAK 1, JAK 2, JAK 3 and TYK2 respectively. 10 μL of enzyme solution was added to kinase reaction at these concentrations: 0.15/0.083/0.025/0.144 ng/μL of JAK 1, JAK 2, JAK 3 and TYK2 respectively. After shaking and 1.5 h of incubation at r.t., 20 μL of Stop (10 μL EDTA) and Detection mixture (10 μL Europium-anti-phospho antibody, final: 0.5 nM) were added. Reading was performed after 1 h of incubation on a En Vision 2104 reader (Perkin Elmer).
(§3) Calculation of IC50 data, curves and QC analysis was performed by using Excel tool and GraphPadPrism software, v9. Briefly, individual concentration-effect curves are generated by plotting the logarithm of the tested concentration of tested compounds (X) vs. corresponding percent inhibition values (Y) using least squares (ordinary) fit. Best fit IC50 values are calculated using Log (inhibitor) vs. normalized response—Variable slope equation, where Y=100/(1+10^((LogIC50−X)*HillSlope)). QC criteria parameters (Z′, S:B, R2, HillSlope) were checked for every IC50 curve. Calculation of IC50 data, curves and QC analysis were made using Excel tools and GraphPadPrism software. QC criteria parameters: Z′≥0.5, Hill Slope range 0.5 to 5, S:B>2.

JAK2 = JAK2 (Homo sapiens, UniProt O60674); test: Biochemical potency on JAK2, TR-FRET (LANCE Ultra kinase assay); details: ATP corresponding to Km; cell-free; read-out: JAK2 inhibitory activity (pIC50) (converted)
Protocol: as §1, §2, §3

TYK2 = TYK2 (Homo sapiens, UniProt P29597); test: Biochemical potency on Tyk2, TR-FRET (LANCE Ultra kinase assay); details: ATP corresponding to Km; cell-free; read-out: TYK2 inhibitory activity (pIC50) (converted)
Protocol: as §1, §2, §3

JAK3 = molecular target: T1, JAK3 (Homo sapiens, UniProt P52333); test: Biochemical potency on JAK3, TR-FRET (LANCE Ultra kinase assay); details: ATP corresponding to Km; cell-free; read-out: JAK3 inhibitory activity (pIC50) (converted)
T1 sequence (P52333 1-1124): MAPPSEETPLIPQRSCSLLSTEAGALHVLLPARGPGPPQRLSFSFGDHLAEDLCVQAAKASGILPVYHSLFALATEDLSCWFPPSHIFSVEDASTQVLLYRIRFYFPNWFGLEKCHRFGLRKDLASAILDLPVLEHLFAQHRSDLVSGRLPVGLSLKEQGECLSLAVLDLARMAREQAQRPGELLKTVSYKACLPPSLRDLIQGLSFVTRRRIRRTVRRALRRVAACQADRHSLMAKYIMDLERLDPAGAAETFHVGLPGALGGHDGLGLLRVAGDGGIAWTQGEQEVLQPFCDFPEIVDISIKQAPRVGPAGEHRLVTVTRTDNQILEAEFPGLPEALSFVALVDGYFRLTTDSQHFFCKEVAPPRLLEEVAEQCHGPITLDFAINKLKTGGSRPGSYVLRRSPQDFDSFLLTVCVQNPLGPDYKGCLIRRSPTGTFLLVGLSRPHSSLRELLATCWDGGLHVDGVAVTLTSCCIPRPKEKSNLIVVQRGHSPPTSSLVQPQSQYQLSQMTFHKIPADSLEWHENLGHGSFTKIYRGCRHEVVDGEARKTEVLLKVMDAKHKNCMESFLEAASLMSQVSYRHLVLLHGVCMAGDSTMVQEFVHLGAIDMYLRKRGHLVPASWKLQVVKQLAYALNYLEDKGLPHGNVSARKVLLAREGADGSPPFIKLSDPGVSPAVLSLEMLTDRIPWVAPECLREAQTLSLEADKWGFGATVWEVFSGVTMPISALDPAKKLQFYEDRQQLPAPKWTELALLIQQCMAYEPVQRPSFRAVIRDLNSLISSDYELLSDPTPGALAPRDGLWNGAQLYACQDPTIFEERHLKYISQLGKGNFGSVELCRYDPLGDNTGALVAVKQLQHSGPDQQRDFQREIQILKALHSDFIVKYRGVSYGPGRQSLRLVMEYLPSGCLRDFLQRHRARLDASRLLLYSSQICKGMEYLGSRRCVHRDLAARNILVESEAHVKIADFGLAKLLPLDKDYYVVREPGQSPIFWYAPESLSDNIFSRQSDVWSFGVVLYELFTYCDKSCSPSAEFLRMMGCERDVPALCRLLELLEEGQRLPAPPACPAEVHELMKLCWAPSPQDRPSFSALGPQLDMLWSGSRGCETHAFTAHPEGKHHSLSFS
Protocol: as §1, §2, §3

TYK2, sequence (P29597 whole entry): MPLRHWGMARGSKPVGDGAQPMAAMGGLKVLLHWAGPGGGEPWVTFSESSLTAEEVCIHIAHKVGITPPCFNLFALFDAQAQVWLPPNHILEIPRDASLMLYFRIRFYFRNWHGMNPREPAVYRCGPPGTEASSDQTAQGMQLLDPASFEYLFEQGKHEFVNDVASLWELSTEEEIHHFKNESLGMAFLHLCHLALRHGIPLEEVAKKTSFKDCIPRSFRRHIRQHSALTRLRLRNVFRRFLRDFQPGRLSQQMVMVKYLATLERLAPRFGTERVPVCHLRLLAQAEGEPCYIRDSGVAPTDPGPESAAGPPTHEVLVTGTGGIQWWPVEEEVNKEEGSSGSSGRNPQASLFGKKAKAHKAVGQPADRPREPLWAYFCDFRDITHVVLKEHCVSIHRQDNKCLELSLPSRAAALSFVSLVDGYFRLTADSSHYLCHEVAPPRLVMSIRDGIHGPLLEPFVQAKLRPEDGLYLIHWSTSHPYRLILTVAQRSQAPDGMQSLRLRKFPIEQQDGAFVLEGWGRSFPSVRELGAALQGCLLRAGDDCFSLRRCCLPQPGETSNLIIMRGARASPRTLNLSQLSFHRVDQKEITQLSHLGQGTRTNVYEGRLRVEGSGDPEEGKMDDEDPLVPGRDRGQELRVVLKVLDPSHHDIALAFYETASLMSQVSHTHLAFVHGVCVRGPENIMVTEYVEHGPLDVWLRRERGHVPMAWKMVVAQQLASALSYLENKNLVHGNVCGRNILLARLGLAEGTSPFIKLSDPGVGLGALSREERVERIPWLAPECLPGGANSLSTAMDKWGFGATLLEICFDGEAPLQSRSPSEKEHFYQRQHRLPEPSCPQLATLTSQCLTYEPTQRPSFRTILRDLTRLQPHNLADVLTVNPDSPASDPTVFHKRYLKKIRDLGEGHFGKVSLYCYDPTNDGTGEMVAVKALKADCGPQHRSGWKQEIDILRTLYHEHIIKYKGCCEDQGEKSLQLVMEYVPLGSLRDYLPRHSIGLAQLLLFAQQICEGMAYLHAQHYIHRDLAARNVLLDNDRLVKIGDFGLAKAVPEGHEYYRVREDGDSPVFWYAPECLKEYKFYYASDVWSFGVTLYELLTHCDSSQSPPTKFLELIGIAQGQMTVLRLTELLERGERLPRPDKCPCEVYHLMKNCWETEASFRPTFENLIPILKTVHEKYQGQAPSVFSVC
JAK1, sequence (P23458 whole entry, canonical isoform): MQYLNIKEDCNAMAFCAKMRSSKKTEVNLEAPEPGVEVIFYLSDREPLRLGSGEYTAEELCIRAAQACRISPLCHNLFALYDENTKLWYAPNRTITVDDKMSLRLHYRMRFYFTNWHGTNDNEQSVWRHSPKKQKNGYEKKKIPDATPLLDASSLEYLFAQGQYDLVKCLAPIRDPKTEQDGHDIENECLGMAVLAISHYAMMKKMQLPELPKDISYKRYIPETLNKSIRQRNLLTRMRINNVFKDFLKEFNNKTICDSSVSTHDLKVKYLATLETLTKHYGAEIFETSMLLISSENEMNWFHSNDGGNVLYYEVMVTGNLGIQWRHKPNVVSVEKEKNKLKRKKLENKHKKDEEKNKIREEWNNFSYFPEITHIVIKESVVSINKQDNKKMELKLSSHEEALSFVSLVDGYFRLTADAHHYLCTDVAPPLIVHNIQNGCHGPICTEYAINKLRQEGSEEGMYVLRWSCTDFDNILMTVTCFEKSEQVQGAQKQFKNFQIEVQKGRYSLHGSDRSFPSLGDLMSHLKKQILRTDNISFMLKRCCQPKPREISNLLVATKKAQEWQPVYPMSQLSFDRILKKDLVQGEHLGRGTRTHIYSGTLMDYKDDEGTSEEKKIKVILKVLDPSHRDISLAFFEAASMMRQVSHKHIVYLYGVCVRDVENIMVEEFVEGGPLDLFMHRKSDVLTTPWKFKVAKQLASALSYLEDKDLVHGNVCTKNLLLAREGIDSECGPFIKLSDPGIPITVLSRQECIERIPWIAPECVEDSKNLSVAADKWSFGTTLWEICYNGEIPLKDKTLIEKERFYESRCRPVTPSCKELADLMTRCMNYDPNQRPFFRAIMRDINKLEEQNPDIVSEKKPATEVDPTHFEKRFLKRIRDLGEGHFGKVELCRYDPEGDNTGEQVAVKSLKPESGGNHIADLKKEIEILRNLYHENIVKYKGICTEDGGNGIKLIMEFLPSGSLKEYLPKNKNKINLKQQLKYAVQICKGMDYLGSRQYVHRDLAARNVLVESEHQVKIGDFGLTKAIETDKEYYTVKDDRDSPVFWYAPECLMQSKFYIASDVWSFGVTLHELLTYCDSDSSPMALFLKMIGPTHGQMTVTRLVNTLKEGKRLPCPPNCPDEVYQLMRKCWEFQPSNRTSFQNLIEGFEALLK
JAK2, sequence (O60674 whole entry): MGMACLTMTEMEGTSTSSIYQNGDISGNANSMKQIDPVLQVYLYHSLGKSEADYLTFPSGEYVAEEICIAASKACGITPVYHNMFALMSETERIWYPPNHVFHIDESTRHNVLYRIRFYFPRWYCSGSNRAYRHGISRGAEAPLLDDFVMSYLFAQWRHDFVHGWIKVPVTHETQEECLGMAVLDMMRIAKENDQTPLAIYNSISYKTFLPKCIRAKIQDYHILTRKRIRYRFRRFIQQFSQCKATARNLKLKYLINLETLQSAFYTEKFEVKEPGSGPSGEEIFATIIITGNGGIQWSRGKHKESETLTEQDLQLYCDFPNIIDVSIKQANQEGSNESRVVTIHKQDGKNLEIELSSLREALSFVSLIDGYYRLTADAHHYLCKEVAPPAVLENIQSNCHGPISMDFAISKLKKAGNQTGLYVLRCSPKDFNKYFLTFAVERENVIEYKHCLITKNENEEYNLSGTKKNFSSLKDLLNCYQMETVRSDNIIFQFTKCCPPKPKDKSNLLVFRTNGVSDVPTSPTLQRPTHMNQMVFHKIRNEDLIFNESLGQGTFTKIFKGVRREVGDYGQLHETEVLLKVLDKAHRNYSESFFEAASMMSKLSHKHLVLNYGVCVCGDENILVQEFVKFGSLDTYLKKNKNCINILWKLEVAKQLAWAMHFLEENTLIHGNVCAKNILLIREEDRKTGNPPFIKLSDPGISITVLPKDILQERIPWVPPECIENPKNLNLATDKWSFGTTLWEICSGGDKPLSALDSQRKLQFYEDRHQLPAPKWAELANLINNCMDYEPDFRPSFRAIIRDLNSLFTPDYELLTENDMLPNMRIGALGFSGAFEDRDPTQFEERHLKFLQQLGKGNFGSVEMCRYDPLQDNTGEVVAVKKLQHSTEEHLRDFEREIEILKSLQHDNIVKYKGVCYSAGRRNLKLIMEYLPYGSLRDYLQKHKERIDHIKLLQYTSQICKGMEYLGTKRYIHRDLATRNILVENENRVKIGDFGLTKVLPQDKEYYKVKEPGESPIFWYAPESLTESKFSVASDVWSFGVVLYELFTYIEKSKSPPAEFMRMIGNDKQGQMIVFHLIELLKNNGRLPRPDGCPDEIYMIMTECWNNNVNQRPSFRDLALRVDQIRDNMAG

| IC50 (JAK1) [nM] | IC50 (JAK2) [nM] | IC50 (TYK2) [nM] | IC50 (JAK3) [nM] | SMILES | IC50 [1] [nM] | Fold difference parent vs predicted acid metabolite [1] |
| --- | --- | --- | --- | --- | --- | --- |
| ≤ 5.01 | ≤ 5.01 | 5.01 to 50.1 | ≤ 5.01 | COc1cc2c(cc1-n1nc(C(=O)NCCN3CC[C@@H](C(=O)O[C@@H]4CCN(CCF)C4)C3)c3cnc(-c4cnn5cccnc45)cc31)OCCN2 [Example 55, (R)-1-(2-fluoroethyl)pyrrolidin-3-yl (R)-1-(2-(1-(6-methoxy-3,4-dihydro-2H-benzo[b][1,4]oxazin-7-yl)-6-(pyrazolo[1,5-a]pyrimidin-3-yl)-1H-pyrazolo[4,3-c]pyridine-3-carboxamido)ethyl)pyrrolidine-3-carboxylate] | 5.01 to 50.1 | kk (100>ratio≥10) |
| ≤ 5.01 | ≤ 5.01 | 5.01 to 50.1 | ≤ 5.01 | COc1cc2c(cc1-n1nc(C(=O)NCCN3CCC(C(=O)O[C@H]4CN(C)C[C@@H]4F)CC3)c3cnc(-c4cnn5cccnc45)cc31)OCCN2 [Example 50, (3S,4S)-4-fluoro-1-methylpyrrolidin-3-yl 1-(2-(1-(6-methoxy-3,4-dihydro-2H-benzo[b][1,4]oxazin-7-yl)-6-(pyrazolo[1,5-a]pyrimidin-3-yl)-1H-pyrazolo[4,3-c]pyridine-3-carboxamido)ethyl)piperidine-4-carboxylate] | ≤ 5.01 | kkkk (ratio≥200) |
| ≤ 5.01 | ≤ 5.01 | 5.01 to 50.1 | ≤ 5.01 | COc1cc2c(cc1-n1nc(C(=O)OCC3CN(C)CCO3)c3cnc(-c4cnn5cccnc45)cc31)OCCN2 (stereo not shown) [Example 46, (4-methylmorpholin-2-yl)methyl 1-(6-methoxy-3,4-dihydro-2H-benzo[b][1,4]oxazin-7-yl)-6-(pyrazolo[1,5-a]pyrimidin-3-yl)-1H-pyrazolo[4,3-c]pyridine-3-carboxylate] | 5.01 to 50.1 | kkk (200>ratio≥100) |

The next lines start with the compound.

| SMILES | IC50 (JAK1) [nM] | IC50 (JAK2) [nM] | IC50 (TYK2) [nM] | IC50 (JAK3) [nM] | IC50 [1] [nM] | Fold difference parent vs predicted acid metabolite [1] |
| --- | --- | --- | --- | --- | --- | --- |
| CCOC(=O)[C@@H]1CCN(CCNC(=O)c2nn(-c3cc4c(cc3OC)NCCO4)c3cc(-c4cnn5cccnc45)ncc23)C1 [Example 43, ethyl (R)-1-(2-(1-(6-methoxy-3,4-dihydro-2H-benzo[b][1,4]oxazin-7-yl)-6-(pyrazolo[1,5-a]pyrimidin-3-yl)-1H-pyrazolo[4,3-c]pyridine-3-carboxamido)ethyl)pyrrolidine-3-carboxylate] | ≤ 5.01 | ≤ 5.01 | 5.01 to 50.1 | ≤ 5.01 | 5.01 to 50.1 | kkk (200>ratio≥100) |
| CCOC(=O)C1CN(CCNC(=O)c2nn(-c3cc4c(cc3OC)NCCO4)c3cc(-c4cnn5cccnc45)ncc23)CCN1C (stereo not shown) [Example 36, ethyl 4-(2-(1-(6-methoxy-3,4-dihydro-2H-benzo[b][1,4]oxazin-7-yl)-6-(pyrazolo[1,5-a]pyrimidin-3-yl)-1H-pyrazolo[4,3-c]pyridine-3-carboxamido)ethyl)-1-methylpiperazine-2-carboxylate] | ≤ 5.01 | 5.01 to 50.1 | 5.01 to 50.1 | ≤ 5.01 | 5.01 to 50.1 |  |
| COc1cc2c(cc1-n1nc(C(=O)NCCN3CCC(C(=O)OC4CCCC4)CC3)c3cnc(-c4cnn5cccnc45)cc31)OCCN2 [Example 12, cyclopentyl 1-(2-(1-(6-methoxy-3,4-dihydro-2H-benzo[b][1,4]oxazin-7-yl)-6-(pyrazolo[1,5-a]pyrimidin-3-yl)-1H-pyrazolo[4,3-c]pyridine-3-carboxamido)ethyl)piperidine-4-carboxylate] | ≤ 5.01 | ≤ 5.01 | 5.01 to 50.1 | ≤ 5.01 | ≤ 5.01 | kkkk (ratio≥200) |
| COCCOC(=O)C1CCN(CCNC(=O)c2nn(-c3cc4c(cc3OC)NCCO4)c3cc(-c4cnn5cccnc45)ncc23)CC1 [Example 16, 2-methoxyethyl 1-(2-(1-(6-methoxy-3,4-dihydro-2H-benzo[b][1,4]oxazin-7-yl)-6-(pyrazolo[1,5-a]pyrimidin-3-yl)-1H-pyrazolo[4,3-c]pyridine-3-carboxamido)ethyl)piperidine-4-carboxylate] | ≤ 5.01 | ≤ 5.01 | 5.01 to 50.1 | ≤ 5.01 | ≤ 5.01 | kkkk (ratio≥200) |
| COc1cc2c(cc1-n1nc(C(=O)NCCN3CCC(C(=O)OCC(C)(C)N(C)C)CC3)c3cnc(-c4cnn5cccnc45)cc31)OCCN2 [Example 20, 2-(dimethylamino)-2-methylpropyl 1-(2-(1-(6-methoxy-3,4-dihydro-2H-benzo[b][1,4]oxazin-7-yl)-6-(pyrazolo[1,5-a]pyrimidin-3-yl)-1H-pyrazolo[4,3-c]pyridine-3-carboxamido)ethyl)piperidine-4-carboxylate] | ≤ 5.01 | ≤ 5.01 | 5.01 to 50.1 | ≤ 5.01 | 5.01 to 50.1 | kkk (200>ratio≥100) |
| CCOC(=O)[C@H]1C[C@@H](OC(=O)Nc2nn(-c3cc4c(cc3OC)NCCS4)c3cc(-c4cnn5cccnc45)ncc23)C1 [Example 2, ethyl (1s,3s)-3-(((1-(6-methoxy-3,4-dihydro-2H-benzo[b][1,4]thiazin-7-yl)-6-(pyrazolo[1,5-a]pyrimidin-3-yl)-1H-pyrazolo[4,3-c]pyridin-3-yl)carbamoyl)oxy)cyclobutane-1-carboxylate] | ≤ 5.01 | ≤ 5.01 | 5.01 to 50.1 | ≤ 5.01 | 5.01 to 50.1 |  |
